One may read the inhibition as the relative decrease from the control value, in per cent. A word on the Ki: it is a measure of affinity in units of concentration, obtained from inhibition or displacement.

The text below walks through data of US20140135310A1, “SULPHONAMIDE DERIVATIVES OF ALICYCLIC AMINES FOR THE TREATMENT OF CENTRAL NERVOUS SYSTEM DISEASES” (Adamed Sp. z o.o., priority 2011, published 2014).

The target in test [1] is 5-HT7 serotoninergic receptors (Homo sapiens, UniProt P34969). The experiment in a line: Cellular functional assay, 5-HT7 serotoninergic receptors. It is filed as cell-based. Conditions: for 5-HT7 ag [%]: agonist mode, percent of control specific agonist response; for Kb: apparent dissociation constant, modified Cheng Prusoff equation, read-out: 5-HT7 antag Kb. The procedure:
(§1) The results are expressed as a percent of control specific agonist response ((measured specific response/control specific agonist response)×100) obtained in the presence of the test compounds.
(§2) The EC50 values (concentration producing a half-maximal specific response) and IC50 values (concentration causing a half-maximal inhibition of the control specific agonist response) were determined by non-linear regression analysis of the concentration-response curves generated with mean replicate values using Hill equation curve fitting (Y=D+[(A−D)/(1+(C/C50)nH)], where Y=specific response, D=minimum specific response, A=maximum specific response, C=compound concentration, and C50=EC50 or IC50, and nH=slope factor). This analysis was performed using a software developed at Cerep (Hill software) and validated by comparison with data generated by the commercial software SigmaPlot® 4.0 for Windows® (© 1997 by SPSS Inc.).
(§3) For the antagonists, the apparent dissociation constants (Kb) were calculated using the modified Cheng Prusoff equation (Kb=IC50/(1+(A/EC50A)), where A=concentration of reference agonist in the assay, and EC50A=EC50 value of the reference agonist).

The target of test [2] is 5-HT2A serotoninergic receptors (Homo sapiens, UniProt P28223). The experiment in a line: Cellular functional assay, 5-HT2A serotoninergic receptors. It is filed as cell-based. Conditions: for Kb: apparent dissociation constant, modified Cheng Prusoff equation, read-out: 5-HT2A antag Kb. The procedure:
as §1
The EC50 values (concentration producing a half-maximal specific response) and IC50 values (concentration causing a half-maximal inhibition of the control specific agonist response) were determined by non-linear regression analysis of the concentration-response curves generated with mean replicate values using Hill equation curve fitting (Y=D+[(A−D)/(1+(C/C50)nH)], where Y=specific response, D=minimum specific response, A=maximum specific response, C=compound concentration, and C50=EC50 or IC50, and nH=slope factor).
as §3

For another test, the target named is T1, 5-HT6 receptor (Homo sapiens, UniProt P50406).
T1 construct: purchased PerkinElmer
As to the kind of experiment: Radioligand binding assay, serotoninergic 5-HT6 receptors. Particulars: for inhibition at 1 µM: binding assay result in %, Table 5a. Put shortly:
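Values are Ki from Cheng–Prusoff, taking IC50 from Hill nonlinear regression of competition curves and KD from a Scatchard plot. Specific binding was total minus binding with excess unlabelled ligand. Radioligand displacement was detected by scintillation counting, and data were also reported as percent of control specific binding.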

In test [3] the target is 5-HT6 serotoninergic receptors (Homo sapiens, UniProt P50406). The experiment in a line: Cellular functional assay, 5-HT6 serotoninergic receptors. Format: cell-based. Conditions: for 5-HT6 ag [%]: agonist mode, percent of control specific agonist response. The procedure:
as §1, §2, §3

A further test deals with T2, α2C adrenergic receptors (Homo sapiens, UniProt P18825).
T2 construct: expressed in transfected cells; host or cells: CHO cells
T2 sequence (P18825 1-462): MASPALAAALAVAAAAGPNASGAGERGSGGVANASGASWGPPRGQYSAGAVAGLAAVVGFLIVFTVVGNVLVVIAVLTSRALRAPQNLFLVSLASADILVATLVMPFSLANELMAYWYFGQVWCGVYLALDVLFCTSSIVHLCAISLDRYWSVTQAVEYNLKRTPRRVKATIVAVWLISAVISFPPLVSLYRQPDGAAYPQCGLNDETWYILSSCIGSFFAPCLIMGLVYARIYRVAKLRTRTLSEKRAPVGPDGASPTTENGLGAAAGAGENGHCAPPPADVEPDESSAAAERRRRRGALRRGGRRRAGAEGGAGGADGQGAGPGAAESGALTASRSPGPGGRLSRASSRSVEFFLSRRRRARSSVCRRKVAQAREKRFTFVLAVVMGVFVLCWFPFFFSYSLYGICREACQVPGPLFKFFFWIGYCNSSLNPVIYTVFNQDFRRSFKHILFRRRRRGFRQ
The experiment in a line: Radioligand binding assay, adrenergic α2C receptors. Conditions: test compound 1×10^−6 M. The gist of the method: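 Competitive radioligand binding at human α2C receptors, with scintillation counting. Nonspecific binding defined with excess unlabelled ligand; results given as % inhibition of control specific binding. IC50 from Hill-equation fits of competition curves; Ki via Cheng-Prusoff using radioligand concentration and Scatchard-derived KD.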

For another test, the target named is T3, 5-HT7 receptor (Homo sapiens, UniProt P34969).
T3 construct: purchased PerkinElmer
As to the kind of experiment: Radioligand binding assay, serotoninergic 5-HT7 receptors. Conditions: binding assay result in %, Table 5a. Put shortly:
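Ki values used the Cheng–Prusoff equation, with KD from Scatchard analysis, applied to IC50 from Hill fits of human 5-HT7 radioligand competition curves. Bound radioligand was counted by scintillation, and excess unlabelled ligand set the non-specific binding.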

Another test concerns the target T4, receptors D4.4 (Homo sapiens, UniProt P21917).
T4 sequence (P21917 1-419): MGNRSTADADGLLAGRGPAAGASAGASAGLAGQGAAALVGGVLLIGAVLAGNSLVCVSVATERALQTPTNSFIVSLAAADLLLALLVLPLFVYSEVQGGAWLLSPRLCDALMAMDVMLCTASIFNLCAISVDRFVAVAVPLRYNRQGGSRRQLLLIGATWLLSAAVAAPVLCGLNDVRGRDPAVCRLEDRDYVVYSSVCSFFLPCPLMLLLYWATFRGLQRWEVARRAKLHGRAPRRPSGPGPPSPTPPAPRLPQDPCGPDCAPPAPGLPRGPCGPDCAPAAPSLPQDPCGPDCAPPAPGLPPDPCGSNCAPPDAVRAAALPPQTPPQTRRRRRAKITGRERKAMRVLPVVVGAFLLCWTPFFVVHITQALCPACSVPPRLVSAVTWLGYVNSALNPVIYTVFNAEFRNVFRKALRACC
The experiment in a line: Radioligand binding assay, dopaminergic D4 (D4.4) receptors. Particulars: test compound 1×10^−6 M. The gist of the method: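 Scintillation read-out. Specific = total − nonspecific (excess cold ligand). Data as % of control specific binding / % inhibition; IC50 by Hill fit; Ki = IC50/(1+L/KD), KD from Scatchard plot.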

[4] abbreviates: agonist mode, percent of control specific agonist response.

Like-named read-outs stand apart in the source and are kept apart here.

Sequence of 5-HT2A serotoninergic receptors (P28223 whole entry): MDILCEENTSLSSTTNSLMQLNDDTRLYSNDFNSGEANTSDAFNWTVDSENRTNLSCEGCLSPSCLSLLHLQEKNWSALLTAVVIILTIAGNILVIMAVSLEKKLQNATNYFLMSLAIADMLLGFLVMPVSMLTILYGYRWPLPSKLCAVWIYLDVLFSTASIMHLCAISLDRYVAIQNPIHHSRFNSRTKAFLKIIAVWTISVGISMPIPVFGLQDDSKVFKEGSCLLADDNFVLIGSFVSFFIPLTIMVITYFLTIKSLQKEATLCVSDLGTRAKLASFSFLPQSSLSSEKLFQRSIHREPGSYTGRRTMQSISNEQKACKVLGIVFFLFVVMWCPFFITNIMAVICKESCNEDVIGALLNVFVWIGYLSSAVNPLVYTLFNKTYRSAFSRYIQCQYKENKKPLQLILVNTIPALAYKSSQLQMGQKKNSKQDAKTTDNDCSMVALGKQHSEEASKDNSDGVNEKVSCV
Sequence of 5-HT6 serotoninergic receptors (P50406 whole entry): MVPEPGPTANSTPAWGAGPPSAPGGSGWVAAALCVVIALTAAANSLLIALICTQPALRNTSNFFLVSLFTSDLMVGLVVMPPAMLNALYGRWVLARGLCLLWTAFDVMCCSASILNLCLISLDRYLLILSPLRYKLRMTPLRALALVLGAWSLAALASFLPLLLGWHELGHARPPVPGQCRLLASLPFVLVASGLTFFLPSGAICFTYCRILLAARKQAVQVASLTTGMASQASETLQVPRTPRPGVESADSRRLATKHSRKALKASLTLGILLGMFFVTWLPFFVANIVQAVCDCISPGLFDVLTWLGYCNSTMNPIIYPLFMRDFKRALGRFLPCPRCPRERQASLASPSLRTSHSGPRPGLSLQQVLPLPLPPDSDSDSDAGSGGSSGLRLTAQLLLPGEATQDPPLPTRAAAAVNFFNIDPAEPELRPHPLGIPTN
T1 sequence (P50406 whole entry): as above
Sequence of 5-HT7 serotoninergic receptors (P34969 whole entry): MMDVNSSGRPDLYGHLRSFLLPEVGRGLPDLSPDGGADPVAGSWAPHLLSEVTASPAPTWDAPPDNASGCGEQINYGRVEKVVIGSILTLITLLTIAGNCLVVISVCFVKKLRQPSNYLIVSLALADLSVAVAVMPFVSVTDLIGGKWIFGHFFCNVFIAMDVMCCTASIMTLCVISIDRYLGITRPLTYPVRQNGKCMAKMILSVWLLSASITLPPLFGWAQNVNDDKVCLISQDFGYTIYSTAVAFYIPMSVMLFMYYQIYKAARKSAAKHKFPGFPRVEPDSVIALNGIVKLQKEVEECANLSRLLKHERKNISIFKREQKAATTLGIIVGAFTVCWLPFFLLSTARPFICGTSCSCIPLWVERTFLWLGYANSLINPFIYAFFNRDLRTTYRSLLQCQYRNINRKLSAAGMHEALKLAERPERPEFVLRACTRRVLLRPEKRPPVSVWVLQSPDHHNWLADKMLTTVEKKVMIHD
T3 sequence (P34969 whole entry): as above

With `O=S(=O)(NC1CCN(CCCc2noc3cc(F)ccc23)C1)c1ccc2ccccc2c1` (stereo not shown) [Compound 21, N-[1-[3-(6-Fluoro-1,2-benzoxazol-3-yl)propyl]pyrrolidin-3-yl]naphthalene-2-sulphonamide], in test [1], the “5-HT7 ag [%]” value is −1%. The Kb in test [1] came to 1.7 nM; in test [2] it was 8.3 nM. Besides, the “5-HT2A ag [%]” value in test [2] is given as 2%. Besides, the inhibition at 1 µM was found to be 95% on 5-HT6 receptor, 78% on α2C adrenergic receptors, 100% on 5-HT7 receptor and 83% at receptors D4.4. Moreover, the “5-HT6 ag [%]” value in test [3] is 1%.

For the molecule `O=S(=O)(NC1CCN(CCCc2noc3cc(F)ccc23)C1)c1ccc2cc(Cl)ccc2c1` (stereo not shown) [Compound 23, 6-Chloro-N-[1-[3-(6-fluoro-1,2-benzoxazol-3-yl)propyl]pyrrolidin-3-yl]naphthalene-2-sulphonamide], the “5-HT7 ag [%]” value in test [1] was −2%. Moreover, the “5-HT2A ag [%]” value in test [2] (setting [4]) was −2%. The inhibition at 1 µM at 5-HT6 receptor was determined as 97%; at α2C adrenergic receptors it was 89%; on 5-HT7 receptor, 95%; at receptors D4.4, 55%. For the same molecule, the “5-HT6 ag [%]” value in test [3] is listed as −1%.

Take `O=S(=O)(NC1CCN(CCCc2noc3cc(F)ccc23)C1)c1cc2ccccc2s1` (stereo not shown) [Compound 25, N-[1-[3-(6-Fluoro-1,2-benzoxazol-3-yl)propyl]pyrrolidin-3-yl]-benzothiophene-2-sulphonamide]: in test [1], the “5-HT7 ag [%]” value is given as −2%. Besides, the Kb in test [1] came to 1.4 nM; in test [2] it was 4.7 nM; in test [3] (apparent dissociation constant, modified Cheng Prusoff equation, read-out: 5-HT6 antag Kb), 10 nM. For the same molecule, the “5-HT2A ag [%]” value in test [2] is reported as −2%. The inhibition at 1 µM at 5-HT6 receptor amounted to 95%; on α2C adrenergic receptors, 90%; at 5-HT7 receptor, 98%; on receptors D4.4, 84%. For the same molecule, the “5-HT6 ag [%]” value in test [3] was found to be 0%.

For `O=S(=O)(NC1CCN(CCCc2noc3cc(F)ccc23)C1)c1csc2ccccc12` (stereo not shown) [Compound 26, N-[1-[3-(6-Fluoro-1,2-benzoxazol-3-yl)propyl]pyrrolidin-3-yl]-benzothiophene-3-sulphonamide], in test [1], the “5-HT7 ag [%]” value is given as −3%. Also, in test [2] (setting [4]), the “5-HT2A ag [%]” value is given as −1%. Also, the inhibition at 1 µM at 5-HT6 receptor is 98%; at α2C adrenergic receptors it was 76%; on 5-HT7 receptor, 97%; on receptors D4.4, 101%. In addition, the “5-HT6 ag [%]” value in test [3] is 0%.

As to `Cc1c(S(=O)(=O)NC2CCN(CCCc3noc4cc(F)ccc34)C2)sc2ccc(F)cc12` (stereo not shown) [Compound 28, 5-Fluoro-N-[1-[3-(6-fluoro-1,2-benzoxazol-3-yl)propyl]pyrrolidin-3-yl]-3-methyl-benzothiophene-2-sulphonamide], the “5-HT7 ag [%]” value in test [1] is given as −3%. In addition, the “5-HT2A ag [%]” value in test [2] (setting [4]) is recorded as −2%. Moreover, the inhibition at 1 µM at 5-HT6 receptor worked out at 96%; on α2C adrenergic receptors it was 93%; on 5-HT7 receptor, 94%; at receptors D4.4 it was 75%. In test [3], the “5-HT6 ag [%]” value is −1%.

Take `O=S(=O)(NC1CCN(CCOc2nsc3ccccc23)C1)c1ccc2ccccc2c1` (stereo not shown) [Compound 39, N-[1-[2-(1,2-Benzothiazol-3-yloxy)ethyl]pyrrolidin-3-yl]naphthalene-2-sulphonamide]: the “5-HT7 ag [%]” value in test [1] is 1%. Further, the “5-HT2A ag [%]” value in test [2] is on record as 3%. In addition, the inhibition at 1 µM stood at 92% at 5-HT6 receptor, 92% on α2C adrenergic receptors, 90% at 5-HT7 receptor and 73% on receptors D4.4. Further, the “5-HT6 ag [%]” value in test [3] is listed as −1%.

As for `O=S(=O)(NC1CCN(CCCc2c[nH]c3ccc(F)cc23)C1)c1ccc2ccccc2c1` (stereo not shown) [Compound 80, N-[1-[3-(5-Fluoro-1H-indol-3-yl)propyl]pyrrolidin-3-yl]naphthalene-2-sulphonamide], the “5-HT7 ag [%]” value in test [1] is 3%. Also, in test [2], the “5-HT2A ag [%]” value is listed as 34%. The inhibition at 1 µM on 5-HT6 receptor came out at 96%; at α2C adrenergic receptors, 88%; at 5-HT7 receptor it was 93%; on receptors D4.4, 91%. In addition, the Ki at 5-HT6 receptor (read-out: Inhibition constants Ki, 5-HT6) is 15 nM. Further, the “5-HT6 ag [%]” value in test [3] was 9%.
